# Several values for one entry are separate records, joined by “and”; a condition that tells them apart may be missing. Equal entries are not always repeated. Entries after “also recorded” stand apart in the source; their conditions may differ.
# What was measured:
# Type in all cases: cell-based
# [1] = test system: H-9 cells; test: Cytoxicity on H-9 cells (drug inhibition, cell count); conditions: for H-9 Mean (drug inhibition): Table 4 summary; for % Inhibition Mean / Cells (×10^4) Mean / % Inhibition / Cells (×10^4): Exp. Dec. 05 to Dec. 09, 2005; for % Inhibition / Cells (×10^4): single replicates
# From the text: (§1) The purified and identified analogs were subjected to in vitro biological testing. […] These three congeners were further evaluated in H9 and PC3 cells. AZT was employed as a positive control in all of these experiments.
# [2] = test system: MCF-7 cells; test: Cytoxicity on MCF-7 cells (drug inhibition, cell count); design: Drug Inhibition on MCF-7 Cells / MCF-7 Mean (drug inhibition) / Drug inhibition on MCF-7 Cells Mean: unit not given here; conditions: MCF-7 cells; for Drug Inhibition on MCF-7 Cells: Table 8 summary; for % Inhibition Mean / Cells (×10^4) Mean / % Inhibition / Cells (×10^4): Exp. Nov. 14 to Nov. 18, 2005; for % Inhibition / Cells (×10^4): single replicates
# From the text: as §1
# [3] = test system: PC-3 cells; test: Cytoxicity on PC-3 cells (drug inhibition, cell count); conditions: for Drug Inhibition on PC-3 cells: Table 7; for % Inhibition Mean / Cells (×10^4) Mean / % Inhibition / Cells (×10^4): Exp. Nov. 11 to Nov. 17, 2005; for % Inhibition / Cells (×10^4): single replicates
# From the text: The purified and identified analogs were subjected to in vitro biological testing.
structure (smiles),measurement,setting,value
COc1ccc(C=CC(=O)c2cc(Cl)cc(Cl)c2O)cc1OC [CHCl 2M],H-9 Mean (drug inhibition),[1]; 1 μg/ml,15.92
same,% Inhibition Mean,[1]; 1 μg/ml,15.92%
same,Cells (×10^4) Mean,[1]; 1 μg/ml,42.25 ×10^4
same,% Inhibition,[1]; 1 μg/ml,16.42% and 15.92% and 15.42%
same,Cells (×10^4),[1]; 1 μg/ml,42.0 ×10^4 and 42.3 ×10^4 and 42.6 ×10^4
same,H-9 Mean (drug inhibition),[1]; 5 μg/ml,52.24
same,% Inhibition Mean,[1]; 5 μg/ml,52.24%
same,Cells (×10^4) Mean,[1]; 5 μg/ml,24.00 ×10^4
same,% Inhibition,[1]; 5 μg/ml,52.24% and 52.74% and 51.74%
same,Cells (×10^4),[1]; 5 μg/ml,24.0 ×10^4 and 23.8 ×10^4 and 24.3 ×10^4
same,H-9 Mean (drug inhibition),[1]; 10 μg/ml,74.3
same,% Inhibition Mean,[1]; 10 μg/ml,74.30%
same,Cells (×10^4) Mean,[1]; 10 μg/ml,12.92 ×10^4
same,% Inhibition,[1]; 10 μg/ml,74.13% and 77.11% and 71.64%
same,Cells (×10^4),[1]; 10 μg/ml,13.0 ×10^4 and 11.5 ×10^4 and 14.3 ×10^4
same,H-9 Mean (drug inhibition),[1]; 50 μg/ml,91.04
same,% Inhibition Mean,[1]; 50 μg/ml,91.04%
same,Cells (×10^4) Mean,[1]; 50 μg/ml,4.50 ×10^4
same,% Inhibition,[1]; 50 μg/ml,92.04% and 91.04% and 90.05%
same,Cells (×10^4),[1]; 50 μg/ml,4.0 ×10^4 and 4.5 ×10^4 and 5.0 ×10^4
same,inhibitory activity compared to AZT,[1]; same conditions as AZT,much superior inhibitory activities; also recorded: as good or somewhat better
same,response to MCF-7 cells in the different drug concentrations,[2],good activities
same,Drug Inhibition on MCF-7 Cells,[2]; 1 μg/ml,14.55
same,% Inhibition Mean,[2]; 1 μg/ml,14.55%
same,Cells (×10^4) Mean,[2]; 1 μg/ml,49.42 ×10^4
same,% Inhibition,[2]; 1 μg/ml,13.98% and 16.14% and 13.54%
same,Cells (×10^4),[2]; 1 μg/ml,49.8 ×10^4 and 48.5 ×10^4 and 50.0 ×10^4
same,Drug Inhibition on MCF-7 Cells,[2]; 5 μg/ml,44.09
same,% Inhibition Mean,[2]; 5 μg/ml,44.09%
same,Cells (×10^4) Mean,[2]; 5 μg/ml,32.33 ×10^4
same,% Inhibition,[2]; 5 μg/ml,44.67% and 45.53% and 42.07%
same,Cells (×10^4),[2]; 5 μg/ml,32.0 ×10^4 and 31.5 ×10^4 and 33.5 ×10^4
same,Drug Inhibition on MCF-7 Cells,[2]; 10 μg/ml,81.99
same,% Inhibition Mean,[2]; 10 μg/ml,81.99%
same,Cells (×10^4) Mean,[2]; 10 μg/ml,10.42 ×10^4
same,% Inhibition,[2]; 10 μg/ml,82.71% and 81.41% and 81.84%
same,Cells (×10^4),[2]; 10 μg/ml,10.0 ×10^4 and 10.8 ×10^4 and 10.5 ×10^4
same,Drug Inhibition on MCF-7 Cells,[2]; 50 μg/ml,98.70
same,% Inhibition Mean,[2]; 50 μg/ml,98.70%
same,Cells (×10^4) Mean,[2]; 50 μg/ml,0.75 ×10^4
same,% Inhibition,[2]; 50 μg/ml,98.27% and 99.14% and 98.70%
same,Cells (×10^4),[2]; 50 μg/ml,1.0 ×10^4 and 0.5 ×10^4 and 0.8 ×10^4
same,inhibitory activity compared to AZT,[2]; same conditions as AZT,much superior inhibitory activities; also recorded: as good or somewhat better
same,Drug Inhibition on PC-3 cells,[3]; 1 μg/ml,42.4
same,% Inhibition Mean,[3]; 1 μg/ml,25.09%
same,Cells (×10^4) Mean,[3]; 1 μg/ml,73.42 ×10^4
same,% Inhibition,[3]; 1 μg/ml,24.23% and 24.49% and 26.53%
same,Cells (×10^4),[3]; 1 μg/ml,74.3 ×10^4 and 74.0 ×10^4 and 72.0 ×10^4
same,Drug Inhibition on PC-3 cells,[3]; 5 μg/ml,73.76
same,% Inhibition Mean,[3]; 5 μg/ml,28.57%
same,Cells (×10^4) Mean,[3]; 5 μg/ml,70.00 ×10^4
same,% Inhibition,[3]; 5 μg/ml,29.59% and 29.08% and 27.04%
same,Cells (×10^4),[3]; 5 μg/ml,69.0 ×10^4 and 69.5 ×10^4 and 71.5 ×10^4
same,Drug Inhibition on PC-3 cells,[3]; 10 μg/ml,87.02
same,% Inhibition Mean,[3]; 10 μg/ml,29.00%
same,Cells (×10^4) Mean,[3]; 10 μg/ml,69.58 ×10^4
same,% Inhibition,[3]; 10 μg/ml,30.61% and 28.57% and 27.81%
same,Drug Inhibition on PC-3 cells,[3]; 50 μg/ml,96.96
same,% Inhibition Mean,[3]; 50 μg/ml,36.65%
same,Cells (×10^4) Mean,[3]; 50 μg/ml,62.08 ×10^4
same,% Inhibition,[3]; 50 μg/ml,31.88% and 33.16% and 45.41%
same,Cells (×10^4),[3]; 50 μg/ml,67.3 ×10^4 and 65.5 ×10^4 and 53.5 ×10^4
same,inhibitory activity compared to AZT,[3]; same conditions as AZT,much superior inhibitory activities; also recorded: as good or somewhat better
COc1ccc(C=CC(=O)c2cc(C)cc([N+](=O)[O-])c2O)cc1OC [CHNM 2M],H-9 Mean (drug inhibition),[1]; 1 μg/ml,−15.75
same,% Inhibition Mean,[1]; 1 μg/ml,−15.75%
same,Cells (×10^4) Mean,[1]; 1 μg/ml,58.17 ×10^4
same,% Inhibition,[1]; 1 μg/ml,−13.93% and −19.90% and −13.43%
same,Cells (×10^4),[1]; 1 μg/ml,57.3 ×10^4 and 60.3 ×10^4 and 57.0 ×10^4
same,H-9 Mean (drug inhibition),[1]; 5 μg/ml,−16.58
same,% Inhibition Mean,[1]; 5 μg/ml,−16.58%
same,Cells (×10^4) Mean,[1]; 5 μg/ml,58.58 ×10^4
same,% Inhibition,[1]; 5 μg/ml,−22.39% and −10.45% and −16.92%
same,Cells (×10^4),[1]; 5 μg/ml,61.5 ×10^4 and 55.5 ×10^4 and 58.8 ×10^4
same,H-9 Mean (drug inhibition),[1]; 10 μg/ml,−1
same,% Inhibition Mean,[1]; 10 μg/ml,−1.00%
same,Cells (×10^4) Mean,[1]; 10 μg/ml,50.75 ×10^4
same,% Inhibition,[1]; 10 μg/ml,−0.50% and −3.98% and 1.49%
same,Cells (×10^4),[1]; 10 μg/ml,50.5 ×10^4 and 52.3 ×10^4 and 49.5 ×10^4
same,H-9 Mean (drug inhibition),[1]; 50 μg/ml,−11.44
same,% Inhibition Mean,[1]; 50 μg/ml,−11.44%
same,Cells (×10^4) Mean,[1]; 50 μg/ml,56.00 ×10^4
same,% Inhibition,[1]; 50 μg/ml,−12.94% and −8.96% and −12.44%
same,Cells (×10^4),[1]; 50 μg/ml,56.8 ×10^4 and 54.8 ×10^4 and 56.5 ×10^4
same,Drug Inhibition on MCF-7 Cells,[2]; 1 μg/ml,6.77
same,% Inhibition Mean,[2]; 1 μg/ml,6.77%
same,Cells (×10^4) Mean,[2]; 1 μg/ml,53.92 ×10^4
same,% Inhibition,[2]; 1 μg/ml,8.36% and 4.47% and 7.49%
same,Cells (×10^4),[2]; 1 μg/ml,53.0 ×10^4 and 55.3 ×10^4 and 53.5 ×10^4
same,Drug Inhibition on MCF-7 Cells,[2]; 5 μg/ml,20.17
same,% Inhibition Mean,[2]; 5 μg/ml,20.17%
same,Cells (×10^4) Mean,[2]; 5 μg/ml,46.17 ×10^4
same,% Inhibition,[2]; 5 μg/ml,21.33% and 22.19% and 17.00%
same,Cells (×10^4),[2]; 5 μg/ml,45.5 ×10^4 and 45.0 ×10^4 and 48.0 ×10^4
same,Drug Inhibition on MCF-7 Cells,[2]; 10 μg/ml,31.27
same,% Inhibition Mean,[2]; 10 μg/ml,31.27%
same,Cells (×10^4) Mean,[2]; 10 μg/ml,39.75 ×10^4
same,% Inhibition,[2]; 10 μg/ml,29.97% and 32.56% and 31.27%
same,Cells (×10^4),[2]; 10 μg/ml,40.5 ×10^4 and 39.0 ×10^4 and 39.8 ×10^4
same,Drug Inhibition on MCF-7 Cells,[2]; 50 μg/ml,42.07
same,% Inhibition Mean,[2]; 50 μg/ml,42.07%
same,Cells (×10^4) Mean,[2]; 50 μg/ml,33.50 ×10^4
same,% Inhibition,[2]; 50 μg/ml,43.80% and 40.35% and 42.07%
same,Cells (×10^4),[2]; 50 μg/ml,32.5 ×10^4 and 34.5 ×10^4 and 33.5 ×10^4
same,Drug Inhibition on PC-3 cells,[3]; 1 μg/ml,27.9
same,% Inhibition Mean,[3]; 1 μg/ml,9.10%
same,Cells (×10^4) Mean,[3]; 1 μg/ml,89.08 ×10^4
same,% Inhibition,[3]; 1 μg/ml,9.69% and 17.09% and 0.51%
same,Cells (×10^4),[3]; 1 μg/ml,88.5 ×10^4 and 81.3 ×10^4 and 97.5 ×10^4
same,Drug Inhibition on PC-3 cells,[3]; 5 μg/ml,39.36
same,% Inhibition Mean,[3]; 5 μg/ml,36.05%
same,Cells (×10^4) Mean,[3]; 5 μg/ml,62.67 ×10^4
same,% Inhibition,[3]; 5 μg/ml,39.29% and 36.99% and 31.89%
same,Cells (×10^4),[3]; 5 μg/ml,59.5 ×10^4 and 61.8 ×10^4 and 66.8 ×10^4
same,Drug Inhibition on PC-3 cells,[3]; 10 μg/ml,45.03
same,% Inhibition Mean,[3]; 10 μg/ml,35.80%
same,Cells (×10^4) Mean,[3]; 10 μg/ml,62.92 ×10^4
same,% Inhibition,[3]; 10 μg/ml,36.22% and 38.52% and 32.65%
same,Drug Inhibition on PC-3 cells,[3]; 50 μg/ml,59.67
same,% Inhibition Mean,[3]; 50 μg/ml,48.81%
same,Cells (×10^4) Mean,[3]; 50 μg/ml,50.17 ×10^4
same,% Inhibition,[3]; 50 μg/ml,49.23% and 46.43% and 50.77%

# From patent publication US8314143B2, “Synthetic flavonoids and pharmaceutical compositions and therapeutic methods of treatment of HIV infection and other pathologies” (Florida A&M University, priority 2006, dated 2012)
